# Assay results as given in paper PMC4763415, “Platinum (IV)-fatty acid conjugates overcome inherently and acquired Cisplatin resistant cancer cell lines: an in-vitro study” (BMC Cancer, 2016).
# Where “and” joins values, the source holds several entries; their conditions need not be identical. Equal entries are not always repeated. Where two headings read alike, the source gives them in different places.
# Assays:
# [1] = tested on: A2780 (Cisplatin sensitive ovarian cancer cells); assay: XTT cell proliferation assay, A2780; format: cell-based, human; conditions: for IC50: XTT
# Experimental: (§1) (2,3-bis-(2-methoxy-4-nitro-5-sulfophenyl)-2H-tetrazolium-5-carboxanilide) (XTT) assay was used as previously described to evaluate the cytotoxicity of the different Cisplatin derivatives. Briefly, cells (1.5 × 10^4) were plated in RPMI 1640 medium using 96-well plates for 24 h, and then treated for an additional 72 h with the different Cisplatin derivatives. A total of 50 μl of XTT solution were added to each well and incubated for 3 h at 37 °C. The optical density was measured by a multi-well plate spectrophotometer at 450 nanometers with a references’ wavelength of 630 nm. The concentrations inhibiting cell proliferation by 50 % (IC50s) of all tested derivatives were calculated. The experiment was performed in triplicate, and standard deviations were also calculated.
# [2] = tested on: A2780cisR (Cisplatin resistant ovarian cancer cells); assay: XTT cell proliferation assay, A2780cisR; format: cell-based, human; conditions: for IC50: Table 1, XTT, 72 h treatment, read-out: IC50 anti-proliferative activity A2780cisR; for increased anti-proliferative potency compared to Cisplatin, A2780cisR: ratio of IC50s vs Cisplatin
# Experimental: as §1
# [3] = tested on: human embryonic kidney cell line 293 T (HEK293T); assay: XTT cell proliferation assay, HEK293T; format: cell-based; conditions: for IC50: Table 2, XTT, non-cancerous cells; for selectivity: potency against A2780 compared to HEK293T: ratio of XTT IC50s
# Experimental: as §1
# [4] = tested on: human embryonic kidney cell line 293A (HEK293A); assay: XTT cell proliferation assay, HEK293A; format: cell-based; conditions: for IC50: Table 2, XTT, non-cancerous cells; for selectivity: potency against A2780 compared to HEK293A: ratio of XTT IC50s
# Experimental: as §1
# [5] = tested on: K562; chronic myelogenous leukemia (CML) cell lines; assay: XTT cell proliferation assay, K562; format: cell-based; conditions: for IC50: Table 1, XTT, 72 h treatment, read-out: IC50 anti-proliferative activity K562; for enhanced anti-CML activity compared to Cisplatin, K562: ratio of IC50s vs Cisplatin
# Experimental: as §1
# A2780 cells = assay: Clonigenicity assay (soft agar), A2780; format: cell-based, human; conditions: for IC50: soft agar, 2 weeks, read-out: IC50 of clonigenicity inhibition A2780; for clonigenicity IC50s values lower than Cisplatin: ovarian cancer cell lines tested (A2780, A2780cisR)
# Experimental: (§2) Clonigenicity assay was performed as previously describe. Briefly, cells (1 × 10^4) in 1 ml RPMI 10 % FBS medium were diluted in 1 ml of 0.6 % agar to give a final agar concentration of 0.3 % agar. The cells-agar mixture was poured over a hardened agar base in wells of 12-well plates and allowed to solidify. Once the top layer solidified, 1 ml of medium containing different treatments was placed on top to keep the agar moist. The cells were grown at 37 °C in a 5 % CO2 humidified atmosphere until colonies were visible (2 weeks). The plates were stained for 4 h with 5 mg/ml 3-(4,5-dimethylthiazol-2-yl)-2,5-diphenyltetrazolium bromide (MTT), and the dye was extracted with 1 ml solubilization buffer (20 % SDS, 50 % N,N-dimethyl-formamide, 25 mM HCL) for 24 h. The optical density was measured at 570 nm wavelength with a reference wavelength of 630 nm.
# [6] = tested on: human foreskin fibroblast cells (HFF); assay: XTT cell proliferation assay, HFF; format: cell-based; conditions: for IC50: Table 2, XTT, non-cancerous cells; for ratio of IC50s against none cancerous cells (HFF) to the cancerous cell line (A2780): ratio of XTT IC50s
# Experimental: as §1
# A2780cisR cells = assay: Clonigenicity assay (soft agar), A2780cisR; format: cell-based, human; conditions: 2 weeks, read-out: IC50 of clonigenicity inhibition A2780cisR
# Experimental: as §2
# [7] = tested on: PARP cleavage in A2780 cells; assay: Apoptosis assay: PARP cleavage by immunoblot, A2780; format: cell-based, human; conditions: 30 h treatment
# Experimental: (§3) To monitor apoptosis potential of Cisplatin derivatives we followed cleavage of poly ADP ribose polymerase (PARP) protein [18]. Briefly, cells (2 × 10^5 cells/ml) were treated with Cisplatin derivatives for the indicated time. Cells were collected, washed once with cold PBS, and lysed in buffer [10 mMTris-HCl (pH 7.4), 100 mMNaCl, 1 mM EDTA, 1 mM EGTA, 1 mM NaF, 20 mM Na4P2O7, 2 mM Na3VO4, 1 % Triton x-100, 10 % Glycerol, 0.1 % sodium dodecyl sulfate (SDS), 0.5 % deoxycholate, 1 mM phenylmethylsulfonyl fluoride (PMSF), for 30 min at 4 °C. Cell lysate supernatants (40 μg protein/each) were resolved on 8 % SDS-polyacrylamide gel electrophoresis, transferred to nitrocellulose membranes, and analyzed by immune-blotting with an anti-cleaved PARP antibody (Cell signaling technology, USA ). Anti α-tubulin antibody (Santa Cruz Co., CA, USA) was used as a loading control.
# [8] = tested on: PARP cleavage in A2780cisR cells; assay: Apoptosis assay: PARP cleavage by immunoblot, A2780cisR; format: cell-based, human; conditions: for concentration causing significant PARP cleavage, A2780cisR: 30 h treatment
# Experimental: as §3
# [9] = tested on: cleaved PARP in A2780cisR cells; assay: PathScan cleaved PARP (Asp214) sandwich ELISA, A2780cisR; format: cell-based, human; conditions: 30 h
# Experimental: Cell lysates prepared from treated ovarian cancer cells (30 h) were used for quantitative measurement of cleaved PARP according to manufacturer’s instructions (Cell signaling technology, USA). In our experiments, 20 μg of total lysate proteins from each sample were utilized.
# [10] = Table 1, 72 h treatment, read-out: IC50 anti-proliferative activity A2780
Structure (SMILES),IC50 [5] [µM],IC50 (A2780 cells) [µM],clonigenicity IC50s values lower than Cisplatin (A2780 cells),"IC50 [1, 10] [µM]","IC50 ([1]; Table 2, read-out: IC50 A2780) [µM]",IC50 [2] [µM],IC50 [3] [µM],IC50 [4] [µM],IC50 [6] [µM],ratio of IC50s against none cancerous cells (HFF) to the cancerous cell line (A2780) [6],IC50 (A2780cisR cells) [µM],"concentration causing significant PARP cleavage, A2780 [7]",increase in levels of cleaved PARP compared to untreated sample ([9]; 25 microM) [fold],"increased anti-proliferative potency compared to Cisplatin, A2780cisR [2]","enhanced anti-CML activity compared to Cisplatin, K562 [5] [folds]",selectivity: potency against A2780 compared to HEK293T [3],selectivity: potency against A2780 compared to HEK293A [4],"concentration causing significant PARP cleavage, A2780cisR [8]",increase in levels of cleaved PARP compared to untreated sample ([9]; 1 microM) [fold],increase in levels of cleaved PARP compared to untreated sample ([9]; 5 microM) [fold],also measured
"N.N.O=C([O-])C1(C(=O)[O-])CCC1.[Pt+2] [Carboplatin, reference compound]",–,–,–,16.8,16.8,109,45,105,–,–,–,–,–,–,–,–,–,–,–,–,–
"N.N.[Cl][Pt][Cl] [Cisplatin, cis-Diamminedichloroplatinum (II)]",5.2,2.3,–,1.3,1.3,19.2,3.2,16.3,84,63,4.2,25 µM,2.4,–,–,–,–,–,–,–,"PARP cleavage in A2780cisR ([8]; 30 h, concentrations below 100 microM): very minimal cleavage of PARP"
"O=C1[O][Pt]2([NH][C@@H]3CCCC[C@H]3[NH]2)[O]C1=O [Oxaliplatin, reference compound]",3.2,0.18,–,12.7,–,15.5,–,–,–,–,1.6,–,–,–,–,–,–,–,–,–,–

# More lines, main results first:
IC50 [5] [µM],IC50 (A2780 cells) [µM],clonigenicity IC50s values lower than Cisplatin (A2780 cells),Structure (SMILES),"IC50 [1, 10] [µM]","IC50 ([1]; Table 2, read-out: IC50 A2780) [µM]",IC50 [2] [µM],IC50 [3] [µM],IC50 [4] [µM],IC50 [6] [µM],ratio of IC50s against none cancerous cells (HFF) to the cancerous cell line (A2780) [6],IC50 (A2780cisR cells) [µM],"concentration causing significant PARP cleavage, A2780 [7]",increase in levels of cleaved PARP compared to untreated sample ([9]; 25 microM) [fold],"increased anti-proliferative potency compared to Cisplatin, A2780cisR [2]","enhanced anti-CML activity compared to Cisplatin, K562 [5] [folds]",selectivity: potency against A2780 compared to HEK293T [3],selectivity: potency against A2780 compared to HEK293A [4],"concentration causing significant PARP cleavage, A2780cisR [8]",increase in levels of cleaved PARP compared to untreated sample ([9]; 1 microM) [fold],increase in levels of cleaved PARP compared to untreated sample ([9]; 5 microM) [fold],also measured
9.4,0.07,–,CCCCCCCC/C=C\CCCCCCCC(=O)[O][Pt]([NH2])([NH2])([Cl])([Cl])[O]C(=O)CCCCCCC/C=C\CCCCCCCC [RJY3],> 20,–,15,–,–,–,–,–,–,–,–,–,–,–,–,–,–,–
1.3,0.015,20–30 folds,"CCCCCCCCCCCC(=O)[O][Pt]([NH2])([NH2])([Cl])([Cl])[O]C(=O)CCCCCCCCCCC [RJY6, Cis, cis, trans-[diamminedichloro-bis-lauratoplatinum(IV)]]",0.7,0.7,3.3,11.8,17.3,82,117 and 117.2,0.013,above 25 microM,21,5-6 fold,4,16 fold,24 fold,above 25 microM,2,3,–
0.7,0.01,20–30 folds,"CCCCCCCC(=O)[O][Pt]([NH2])([NH2])([Cl])([Cl])[O]C(=O)CCCCCCC [RJY13, Cis, cis, trans-[diamminedichloro-bis-octanoatoplatinum (IV)]]",0.08,0.08,0.57,0.5,0.7,2.4,30,0.01,5 µM,37,33 fold,7,about 10 fold,about 10 fold,5 µM,4,34,"increased anti-proliferative potency compared to Cisplatin, A2780 ([1]; ratio of IC50s vs Cisplatin): 16 fold"
